The source of these data is patent US9315458B2, “Nitrogen-containing heterocyclic compound” (Takeda Pharmaceutical Company Limited, priority 2014, dated 2016).

This assay deals with T1, human M1 receptor (hCHRM1) (Homo sapiens, UniProt P11229).
T1 construct: expressed in transfected cells
T1 sequence (P11229 1-460): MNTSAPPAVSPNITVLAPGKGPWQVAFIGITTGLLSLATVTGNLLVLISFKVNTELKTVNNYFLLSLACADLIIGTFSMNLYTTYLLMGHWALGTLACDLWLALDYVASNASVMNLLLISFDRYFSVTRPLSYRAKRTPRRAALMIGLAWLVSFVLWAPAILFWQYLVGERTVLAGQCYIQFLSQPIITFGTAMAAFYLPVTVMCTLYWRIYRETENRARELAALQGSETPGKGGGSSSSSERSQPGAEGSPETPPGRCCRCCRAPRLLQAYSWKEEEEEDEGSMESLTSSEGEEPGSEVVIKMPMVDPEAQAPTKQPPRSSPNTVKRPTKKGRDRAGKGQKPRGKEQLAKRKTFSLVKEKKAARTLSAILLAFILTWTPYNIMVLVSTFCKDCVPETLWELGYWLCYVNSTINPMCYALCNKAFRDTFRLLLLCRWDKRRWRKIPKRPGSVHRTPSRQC
The experiment in a line: Measurement of M1 receptor positive allosteric modulator (M1PAM) activity, calcium fluorescence (FLIPRtetra) with acetylcholine at EC20. Format: cell-based. To be noted: for activity (%) at 10 μM: 10 μM test compound, 100% = acetylcholine 1 μM, 0% = DMSO, acetylcholine at EC20; for EC50: inflection point of concentration-dependent curve, CHO-K1 cells expressing hCHRM1, acetylcholine at EC20 (final 0.6-0.8 nM), read-out: IP value. As for the experimental part:
The activity of a test compound in the presence of acetylcholine at EC20 concentration (final concentration 0.6-0.8 nM), which affords an action corresponding to about 20% of the maximum activity, was measured as PAM activity. The method is as follows. CHO-K1 cells stably expressing a human M1 receptor (hCHRM1) were plated on a 384-well black clear bottom plate (BD Falcon) at 5,000 cells/well, and cultured in an incubator at 37° C., 5% CO2 for 1 day. The medium in the cell plate was removed, and assay buffer A (Recording medium (DOJINDO LABORATORIES), 0.1% BSA (Wako Pure Chemical Industries, Ltd.), 2.5 μg/mL Fluo-4 AM (DOJINDO LABORATORIES), 0.08% Pluronic F127 (DOJINDO LABORATORIES), 1.25 mM probenecid (DOJINDO LABORATORIES)) containing a calcium indicator was added at 30 μL/well. The cells were left standing in the incubator at 37° C., 5% CO2 for 30 min, and further left standing at room temperature for 30 min. A test compound prepared by diluting with assay buffer B (HBSS (Invitrogen), 20 mM HEPES (Invitrogen), 0.1% BSA) containing 2.4-3.2 nM acetylcholine was added at 10 μL/well, and the fluorescence was measured by FLIPRtetra (Molecular Devices) for 1 min every 1 second. With the definition that the amount of change in the fluorescence on addition of acetylcholine (final concentration 1 μM) is 100% and that on addition of DMSO instead of a test compound is 0%, the activity (%) of the test compound was calculated, and the inflection point in the concentration-dependent curve of the test compound was calculated as IP values.

Molecules are shown by their SMILES.

Turning to `Cc1c(Cc2ccc(-n3cccn3)cc2)cc2c(c1F)CN([C@H]1CCCC[C@@H]1O)C2=O` (racemic) [Example 78, rac-4-fluoro-2-(trans-2-hydroxycyclohexyl)-5-methyl-6-(4-(1H-pyrazol-1-yl)benzyl)isoindolin-1-one], the “activity (%) at 10 μM” value turned out to be 95% and the EC50 is 8.8 nM.

On to `Cc1c(Cc2ccc(-n3cccn3)cc2)cc2c(c1F)CN([C@H]1CCC[C@@H]1O)C2=O` (racemic) [Example 79, rac-4-fluoro-2-(trans-2-hydroxycyclopentyl)-5-methyl-6-(4-(1H-pyrazol-1-yl)benzyl)isoindolin-1-one], for which the “activity (%) at 10 μM” value is 93% and the EC50 was found to be 72 nM.

As to `Cc1c(Cc2ccc(-c3ccn(C)n3)cc2)cc2c(c1C)CN([C@H]1CCCC[C@@H]1O)C2=O` (racemic) [Example 82, rac-2-(trans-2-hydroxycyclohexyl)-4,5-dimethyl-6-(4-(1-methyl-1H-pyrazol-3-yl)benzyl)isoindolin-1-one], the “activity (%) at 10 μM” value is 91% and the EC50 was 5.7 nM.

As for `Cc1c(Cc2ccc(-c3ccn(C)n3)cc2)cc2c(c1C)CN([C@H]1CCC[C@@H]1O)C2=O` (racemic) [Example 83, rac-2-(trans-2-hydroxycyclopentyl)-4,5-dimethyl-6-(4-(1-methyl-1H-pyrazol-3-yl)benzyl)isoindolin-1-one], the “activity (%) at 10 μM” value came out at 92% and the EC50 was determined as 13 nM.

In the case of `O=C1c2cc(Cc3ccc(-n4cccn4)cc3)c(C(F)(F)F)c(Cl)c2CN1[C@H]1CCC[C@@H]1O` (racemic) [Example 88, rac-4-chloro-2-(trans-2-hydroxycyclopentyl)-6-(4-(1H-pyrazol-1-yl)benzyl)-5-(trifluoromethyl)isoindolin-1-one], the “activity (%) at 10 μM” value worked out at 98% and the EC50 was 85 nM.

For `Cc1c(Cc2ccc(-c3cnn(C)c3)cc2)cc2c(c1C)CN([C@H]1CCCC[C@@H]1O)C2=O` (racemic) [Example 89, rac-2-(trans-2-hydroxycyclohexyl)-4,5-dimethyl-6-(4-(1-methyl-1H-pyrazol-4-yl)benzyl)isoindolin-1-one], the “activity (%) at 10 μM” value was determined as 94% and the EC50 was 5.7 nM.

On to `Cc1cc(-c2ccc(Cc3cc4c(cc3C)CN([C@H]3CCC[C@@H]3O)C4=O)cc2)cnn1` (racemic) [Example 91, rac-2-(trans-2-hydroxycyclopentyl)-5-methyl-6-(4-(6-methylpyridazin-4-yl)benzyl)isoindolin-1-one], for which the “activity (%) at 10 μM” value was determined as 95% and the EC50 was 38 nM.

Regarding `COc1c(Cc2ccc(-n3cccn3)cc2)cc2c(c1Cl)CN([C@H]1CCC[C@@H]1O)C2=O` (racemic) [Example 92, rac-4-chloro-2-(trans-2-hydroxycyclopentyl)-5-methoxy-6-(4-(1H-pyrazol-1-yl)benzyl)isoindolin-1-one], the “activity (%) at 10 μM” value is 91% and the EC50 came out at 60 nM.

Regarding `Cc1c(Cc2ccc(-n3cccn3)cc2)cc2c(c1Cl)CN([C@H]1CCCC[C@@H]1O)C2=O` (racemic) [Example 93, rac-4-chloro-2-(trans-2-hydroxycyclohexyl)-5-methyl-6-(4-(1H-pyrazol-1-yl)benzyl)isoindolin-1-one], the “activity (%) at 10 μM” value is recorded as 94% and the EC50 is 5.6 nM.

As to `Cc1nn(C)cc1-c1ccc(Cc2cc3c(c(C)c2C)CN([C@H]2CCCC[C@@H]2O)C3=O)c(F)c1` (racemic) [Example 94, rac-6-(4-(1,3-dimethyl-1H-pyrazol-4-yl)-2-fluorobenzyl)-2-(trans-2-hydroxycyclohexyl)-4,5-dimethylisoindolin-1-one], the “activity (%) at 10 μM” value amounted to 92% and the EC50 came to 9.5 nM.

As for `Cc1nn(C)cc1-c1ccc(Cc2cc3c(c(C)c2C)CN([C@H]2CCC[C@@H]2O)C3=O)c(F)c1` (racemic) [Example 95, rac-6-(4-(1,3-dimethyl-1H-pyrazol-4-yl)-2-fluorobenzyl)-2-(trans-2-hydroxycyclopentyl)-4,5-dimethylisoindolin-1-one], the “activity (%) at 10 μM” value is on record as 92% and the EC50 was found to be 26 nM.

In the case of `COc1c(Cc2ccc(-n3cccn3)cc2)cc2c(c1F)CN([C@H]1CCCC[C@@H]1O)C2=O` (racemic) [Example 97, rac-4-fluoro-2-(trans-2-hydroxycyclohexyl)-5-methoxy-6-(4-(1H-pyrazol-1-yl)benzyl)isoindolin-1-one], the “activity (%) at 10 μM” value turned out to be 96% and the EC50 came out at 5.3 nM.

Regarding `Cc1cc(-c2ccc(Cc3cc4c(cc3C)CN([C@H]3CCCC[C@@H]3O)C4=O)cc2)ccn1` (racemic) [Example 99, rac-2-(trans-2-hydroxycyclohexyl)-5-methyl-6-(4-(2-methylpyridin-4-yl)benzyl)isoindolin-1-one], the “activity (%) at 10 μM” value came to 103% and the EC50 was found to be 16 nM.

For `Cc1cc(-c2ccc(Cc3cc4c(cc3C)CN([C@H]3CCC[C@@H]3O)C4=O)cc2)ccn1` (racemic) [Example 100, rac-2-(trans-2-hydroxycyclopentyl)-5-methyl-6-(4-(2-methylpyridin-4-yl)benzyl)isoindolin-1-one], the “activity (%) at 10 μM” value was 101% and the EC50 came out at 94 nM.

With `Cc1c(Cc2ccc(-n3cccn3)cc2)cc2c(c1Cl)CN([C@H]1CCC[C@@H]1O)C2=O` (racemic) [Example 102, rac-4-chloro-2-(trans-2-hydroxycyclopentyl)-5-methyl-6-(4-(1H-pyrazol-1-yl)benzyl)isoindolin-1-one], the “activity (%) at 10 μM” value is reported as 91% and the EC50 was 13 nM.

Take `CCc1cc2c(cc1Cc1ccc(-c3cn(C)nn3)cc1)C(=O)N([C@H]1CCC[C@@H]1O)C2` (racemic) [Example 106, rac-5-ethyl-2-(trans-2-hydroxycyclopentyl)-6-(4-(1-methyl-1H-1,2,3-triazol-4-yl)benzyl)isoindolin-1-one]: the “activity (%) at 10 μM” value amounted to 92% and the EC50 stood at 11 nM.

For `Cc1c(Cc2ccc(C#N)cc2F)cc2c(c1C)CN([C@H]1COCC[C@@H]1O)C2=O` (racemic) [Example 112, rac-3-fluoro-4-((2-(trans-4-hydroxytetrahydro-2H-pyran-3-yl)-6,7-dimethyl-3-oxo-2,3-dihydro-1H-isoindol-5-yl)methyl)benzonitrile], the “activity (%) at 10 μM” value is reported as 93% and the EC50 came to 30 nM.

Regarding `Cc1c(Cc2ccc(C(N)=O)cc2F)cc2c(c1C)CN([C@H]1COCC[C@@H]1O)C2=O` (racemic) [Example 113, rac-3-fluoro-4-((2-(trans-4-hydroxytetrahydro-2H-pyran-3-yl)-6,7-dimethyl-3-oxo-2,3-dihydro-1H-isoindol-5-yl)methyl)benzamide], the “activity (%) at 10 μM” value is reported as 82% and the EC50 came to 1.5 nM.

Turning to `COc1ccc(Cc2cc3c(c(C)c2C)CN([C@H]2COCC[C@@H]2O)C3=O)cc1` (racemic) [Example 165, rac-2-(trans-4-hydroxytetrahydro-2H-pyran-3-yl)-6-(4-methoxybenzyl)-4,5-dimethyl-2,3-dihydro-1H-isoindol-1-one], the “activity (%) at 10 μM” value was determined as 103% and the EC50 stood at 36 nM.

Consider `Cc1cc2c(cc1Cc1ccc(-n3cccn3)cc1)C(=O)N([C@H]1CCC[C@@H]1O)C2` [Example 4, 2-((1S,2S)-2-hydroxycyclopentyl)-5-methyl-6-(4-(1H-pyrazol-1-yl)benzyl)isoindolin-1-one], for which the “activity (%) at 10 μM” value turned out to be 98% and the EC50 was 19 nM.

With `Cc1cc2c(cc1Cc1ccc(-n3cccn3)cc1)C(=O)N(c1c(F)cccc1C#N)C2` [Example 7, 3-fluoro-2-(5-methyl-1-oxo-6-(4-(1H-pyrazol-1-yl)benzyl)-1,3-dihydro-2H-isoindol-2-yl)benzonitrile], the “activity (%) at 10 μM” value came to 107% and the EC50 was 180 nM.

Take `Cc1cc2c(cc1Cc1ccc(-n3cccn3)cc1)C(=O)N(C1CCOCC1)C2` [Example 8, 5-methyl-6-(4-(1H-pyrazol-1-yl)benzyl)-2-(tetrahydro-2H-pyran-4-yl)isoindolin-1-one]: the “activity (%) at 10 μM” value is 90% and the EC50 came to 290 nM.
